Active and inactive are the calls of the source. Rule as the data show it, for most assays here: actives have a measured Kd and inactives only a lower limit.

In ChEMBL document CHEMBL3991601, “The target landscape of clinical kinase drugs” (Science, 2017) one finds Kd data, which are given here for 14 molecules.

One assay has as its target T1, Activin receptor type-1B (Homo sapiens, UniProt P36896).
T1 sequence (P36896 whole entry): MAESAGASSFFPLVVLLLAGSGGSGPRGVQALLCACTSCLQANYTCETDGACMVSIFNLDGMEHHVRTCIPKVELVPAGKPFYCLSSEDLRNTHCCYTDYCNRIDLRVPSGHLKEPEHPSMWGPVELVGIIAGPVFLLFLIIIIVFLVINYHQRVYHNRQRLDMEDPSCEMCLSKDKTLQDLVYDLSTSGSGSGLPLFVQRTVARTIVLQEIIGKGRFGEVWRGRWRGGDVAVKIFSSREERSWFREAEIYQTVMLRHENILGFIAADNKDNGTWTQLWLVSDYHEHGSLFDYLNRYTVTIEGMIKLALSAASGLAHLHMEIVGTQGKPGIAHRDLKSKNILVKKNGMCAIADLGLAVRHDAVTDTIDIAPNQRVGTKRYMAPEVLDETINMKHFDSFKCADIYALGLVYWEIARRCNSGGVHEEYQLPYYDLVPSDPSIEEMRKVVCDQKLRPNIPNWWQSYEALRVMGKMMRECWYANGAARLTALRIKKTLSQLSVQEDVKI

The target in assay [1] is T2, AarF domain-containing protein kinase 1 (Homo sapiens, UniProt Q86TW2).
T2 sequence (Q86TW2 whole entry): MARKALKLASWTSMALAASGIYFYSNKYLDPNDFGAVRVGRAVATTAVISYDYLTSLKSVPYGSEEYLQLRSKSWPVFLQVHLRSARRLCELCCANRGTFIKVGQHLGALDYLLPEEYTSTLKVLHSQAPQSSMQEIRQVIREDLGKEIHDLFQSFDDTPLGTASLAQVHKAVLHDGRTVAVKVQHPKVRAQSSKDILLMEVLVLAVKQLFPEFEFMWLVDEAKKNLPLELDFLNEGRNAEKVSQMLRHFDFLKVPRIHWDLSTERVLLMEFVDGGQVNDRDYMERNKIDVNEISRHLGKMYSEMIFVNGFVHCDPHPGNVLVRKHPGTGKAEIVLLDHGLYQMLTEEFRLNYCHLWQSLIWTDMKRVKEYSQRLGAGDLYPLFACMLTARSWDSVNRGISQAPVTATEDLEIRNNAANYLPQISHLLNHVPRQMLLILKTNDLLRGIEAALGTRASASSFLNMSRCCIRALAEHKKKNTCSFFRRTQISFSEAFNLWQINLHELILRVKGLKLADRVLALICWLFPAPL

Assay [2] deals with T3, Beta-adrenergic receptor kinase 1 (Homo sapiens, UniProt P25098).
T3 sequence (P25098 whole entry): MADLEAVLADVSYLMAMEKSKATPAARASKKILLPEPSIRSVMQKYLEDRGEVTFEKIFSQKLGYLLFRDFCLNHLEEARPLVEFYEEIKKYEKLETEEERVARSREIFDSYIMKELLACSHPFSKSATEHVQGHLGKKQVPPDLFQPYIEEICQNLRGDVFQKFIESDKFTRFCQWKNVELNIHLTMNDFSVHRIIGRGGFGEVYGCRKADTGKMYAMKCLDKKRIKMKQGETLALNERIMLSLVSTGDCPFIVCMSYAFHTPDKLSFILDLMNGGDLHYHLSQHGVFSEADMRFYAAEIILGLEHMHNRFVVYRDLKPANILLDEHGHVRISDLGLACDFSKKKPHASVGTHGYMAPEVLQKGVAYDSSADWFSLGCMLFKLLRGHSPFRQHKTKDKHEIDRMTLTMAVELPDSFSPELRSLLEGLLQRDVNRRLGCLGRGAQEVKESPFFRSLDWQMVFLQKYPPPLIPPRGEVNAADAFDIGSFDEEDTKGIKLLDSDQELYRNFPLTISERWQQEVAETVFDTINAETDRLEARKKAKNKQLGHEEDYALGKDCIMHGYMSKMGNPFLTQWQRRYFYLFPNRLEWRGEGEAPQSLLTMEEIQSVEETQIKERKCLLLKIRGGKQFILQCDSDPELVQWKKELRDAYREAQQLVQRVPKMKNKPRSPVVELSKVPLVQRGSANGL

Assay [3] addresses Adenylate kinase 2, mitochondrial (Homo sapiens, UniProt P54819).
The target in assay [4] is T4, Serine/threonine-protein kinase PLK4 (Homo sapiens, UniProt O00444).
T4 sequence (O00444 whole entry): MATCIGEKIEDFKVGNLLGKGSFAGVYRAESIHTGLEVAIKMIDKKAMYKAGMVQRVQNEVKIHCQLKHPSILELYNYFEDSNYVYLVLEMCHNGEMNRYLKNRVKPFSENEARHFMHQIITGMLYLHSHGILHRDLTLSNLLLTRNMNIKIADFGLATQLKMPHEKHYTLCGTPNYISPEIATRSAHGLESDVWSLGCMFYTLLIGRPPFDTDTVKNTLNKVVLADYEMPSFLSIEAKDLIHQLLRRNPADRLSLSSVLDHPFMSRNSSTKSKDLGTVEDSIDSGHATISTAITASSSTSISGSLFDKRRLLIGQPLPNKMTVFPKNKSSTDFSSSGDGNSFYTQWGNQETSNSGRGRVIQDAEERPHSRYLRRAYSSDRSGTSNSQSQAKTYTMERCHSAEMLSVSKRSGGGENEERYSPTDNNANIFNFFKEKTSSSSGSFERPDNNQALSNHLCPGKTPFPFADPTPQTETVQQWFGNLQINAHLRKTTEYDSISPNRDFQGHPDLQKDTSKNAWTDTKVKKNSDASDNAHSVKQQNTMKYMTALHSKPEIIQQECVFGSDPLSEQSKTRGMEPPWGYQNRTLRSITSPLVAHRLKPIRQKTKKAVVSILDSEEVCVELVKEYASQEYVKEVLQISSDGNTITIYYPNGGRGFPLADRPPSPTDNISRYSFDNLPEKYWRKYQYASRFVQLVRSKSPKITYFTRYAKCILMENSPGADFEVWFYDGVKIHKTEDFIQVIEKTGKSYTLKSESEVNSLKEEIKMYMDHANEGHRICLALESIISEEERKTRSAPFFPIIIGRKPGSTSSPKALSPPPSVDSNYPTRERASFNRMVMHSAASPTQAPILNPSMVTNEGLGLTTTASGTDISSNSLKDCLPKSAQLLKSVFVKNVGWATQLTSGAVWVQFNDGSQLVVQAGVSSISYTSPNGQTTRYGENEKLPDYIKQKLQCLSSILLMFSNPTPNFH

In assay [5] the target is 26S proteasome regulatory subunit 6B (Homo sapiens, UniProt P43686).
Assay [6] addresses Tyrosine-protein kinase SYK (Homo sapiens, UniProt P43405).
Also: in the data inactive means no Kd found up to 30 µM.

26S proteasome regulatory subunit 6B, sequence (P43686 whole entry): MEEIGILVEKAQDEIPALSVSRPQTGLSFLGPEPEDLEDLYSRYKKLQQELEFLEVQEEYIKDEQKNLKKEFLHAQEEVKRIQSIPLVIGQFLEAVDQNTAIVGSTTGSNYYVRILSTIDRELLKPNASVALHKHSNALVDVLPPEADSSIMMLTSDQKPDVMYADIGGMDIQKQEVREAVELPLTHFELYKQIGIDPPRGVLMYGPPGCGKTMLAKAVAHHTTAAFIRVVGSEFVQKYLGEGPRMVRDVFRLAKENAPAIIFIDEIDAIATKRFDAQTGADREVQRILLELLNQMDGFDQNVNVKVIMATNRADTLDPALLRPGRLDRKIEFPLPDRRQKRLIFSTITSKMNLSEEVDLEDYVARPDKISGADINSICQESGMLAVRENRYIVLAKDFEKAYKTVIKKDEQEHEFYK

Take `Cc1ccc(C(=O)Nc2ccc(Oc3cc4cnn(C)c4cc3-c3cn[nH]c3)c(F)c2)c(=O)n1-c1ccc(F)cc1` [MERESTINIB]: the Kd – broadly, the constant that tells how readily two partners part at equilibrium – is > 30 µM (inactive) on Activin receptor type-1B; > 30 µM (inactive) in assay [1]; > 30 µM (inactive) in assay [2]; > 30 µM (inactive) in assay [3]; 1.61 µM (active) in assay [4]; > 30 µM (inactive) in assay [5]. In addition, the Kd in assay [6] is > 30 µM (inactive).

On to `C#Cc1cccc(Nc2ncnc3cc4c(cc23)OCCOCCOCCO4)c1` [ICOTINIB], for which the Kd (on Activin receptor type-1B; in assay [1]; in assay [2]; in assay [3]; in assay [4]; in assay [5]) was > 30 µM (inactive) each time. The Kd in assay [6] was > 30 µM (inactive).

For `COc1cc(F)c(F)c(Nc2ccc(I)cc2F)c1NS(=O)(=O)C1(C[C@H](O)CO)CC1` [REFAMETINIB], the Kd is > 30 µM (inactive) at Activin receptor type-1B; 0.778 µM in assay [1]; > 30 µM (inactive) in assay [2]; > 30 µM (inactive) in assay [3]; > 30 µM (inactive) in assay [4]; > 30 µM (inactive) in assay [5]. Further, in assay [6], the Kd was > 30 µM (inactive).

Turning to `CCOc1ccn(-c2ccc(F)cc2)c(=O)c1C(=O)Nc1ccc(Oc2ccnc(N)c2Cl)c(F)c1` [BMS-777607], the Kd at Activin receptor type-1B was > 30 µM (inactive); in assay [1], > 30 µM (inactive); in assay [2], > 30 µM (inactive); in assay [3] it was > 30 µM (inactive); in assay [4], 0.301 µM; in assay [5] it was > 30 µM (inactive). The Kd in assay [6] is > 30 µM (inactive).

As to `O[C@H]1CC[C@H](Nc2ncc3nc(Nc4c(F)cc(F)cc4F)n([C@H]4CCOC4)c3n2)CC1` [TANZISERTIB], the Kd (on Activin receptor type-1B; in assay [1]; in assay [2]; in assay [3]; in assay [4]; in assay [5]) was > 30 µM (inactive) in each case. Moreover, the Kd in assay [6] was > 30 µM (inactive).

Regarding `FC(F)(F)c1ccc(CNc2ccc(Cc3c[nH]c4ncc(Cl)cc34)cn2)cn1` [PEXIDARTINIB], the Kd (on Activin receptor type-1B; in assay [1]; in assay [2]; in assay [3]; in assay [4]; in assay [5]) was > 30 µM (inactive) throughout. Further, in assay [6], the Kd is > 30 µM (inactive).

As for `CNC(=O)c1cc(COc2nnc(Nc3ccc(Cl)cc3)c3ccoc23)ccn1` [TELATINIB], the Kd (on Activin receptor type-1B; in assay [1]; in assay [2]; in assay [3]; in assay [4]; in assay [5]) was > 30 µM (inactive) each time. For the same molecule, the Kd in assay [6] is > 30 µM (inactive).

Regarding `COc1cc2ncnc3c2cc1OCCCCCN(C)Cc1ccc(Br)cc1N3` [JNJ-26483327], the Kd (at Activin receptor type-1B; in assay [1]; in assay [2]; in assay [3]; in assay [4]; in assay [5]) was > 30 µM (inactive) each time. For the same molecule, the Kd in assay [6] was > 30 µM (inactive).

Consider `CNC(=O)c1cccc(-c2ccc3c(N4CCOC[C@@H]4C)nc(N4CCOC[C@@H]4C)nc3n2)c1` [VISTUSERTIB], for which the Kd (on Activin receptor type-1B; in assay [1]; in assay [2]; in assay [3]; in assay [4]; in assay [5]) was > 30 µM (inactive) throughout. For the same molecule, in assay [6], the Kd was > 30 µM (inactive).

As to `CC1(COc2ccc3c(c2)ncn3-c2ccc3cccc(N4CCC(N)CC4)c3n2)COC1` [CRENOLANIB], the Kd (on Activin receptor type-1B; in assay [1]; in assay [2]; in assay [3]; in assay [4]; in assay [5]) was > 30 µM (inactive) in each case. The Kd in assay [6] is > 30 µM (inactive).

`NC(=O)c1ccc(N(C(N)=O)c2c(F)cccc2F)nc1-c1ccc(F)cc1F` [VX-702]: the Kd (at Activin receptor type-1B; in assay [1]; in assay [2]; in assay [3]; in assay [4]; in assay [5]) was > 30 µM (inactive) in each case. In addition, the Kd in assay [6] was > 30 µM (inactive).

Consider `Cc1cc(-c2cc(OC(=O)c3ccccc3)ccc2Cl)cc2nnc(Nc3ccc(OCCN4CCCC4)cc3)nc12` [TG100-801], for which the Kd (at Activin receptor type-1B; in assay [1]; in assay [2]; in assay [3]; in assay [4]; in assay [5]) was > 30 µM (inactive) in each case. Further, the Kd in assay [6] is > 30 µM (inactive).

For `O=C(Nc1ccc(OC(F)(F)F)cc1)c1sccc1NCc1ccnc2ccccc12` [OSI-930], the Kd (on Activin receptor type-1B; in assay [1]; in assay [2]; in assay [3]; in assay [4]; in assay [5]) was > 30 µM (inactive) throughout. The Kd in assay [6] was > 30 µM (inactive).

Consider `COc1ccc(-c2ccc3ncc4c(c3c2)n(-c2ccc(N3CCNCC3)c(C(F)(F)F)c2)c(=O)n4C)cn1` [BGT-226 FREE BASE], for which the Kd (at Activin receptor type-1B; in assay [1]; in assay [2]; in assay [3]; in assay [4]; in assay [5]) was > 30 µM (inactive) each time. In assay [6], the Kd is > 30 µM (inactive).
